Data as given in paper PMC8682774 (2021).

Experiments:
[1] = test system: 22AG (DNA, G4) AGGGTTAGGGTTAGGGTTAGGG; assay: G4-FID; conditions: 100 mM KCl, 10 mM lithium cacodylate pH 7.3, thiazole orange 0.5 µM displaced
[2] = test system: 21CTA (DNA, G4) GGGCTAGGGCTAGGGCTAGGG; assay: G4-FID; conditions: 100 mM KCl, 10 mM lithium cacodylate pH 7.3, thiazole orange 0.5 µM displaced
[3] = test system: c-Myc22 (G14T-G23T) (DNA, G4) TGAGGGTGGGTAGGGTGGGTAA; assay: G4-FID; conditions: 100 mM KCl, 10 mM lithium cacodylate pH 7.3, thiazole orange 0.5 µM displaced
[4] = test system: cKit2 (DNA, G4) GGGCGGGCGCGAGGGAGGGG; assay: G4-FID; conditions: 100 mM KCl, 10 mM lithium cacodylate pH 7.3, thiazole orange 0.5 µM displaced
[5] = test system: CEB25wt (DNA, G4) AAGGGTGGGTGTAAGTGTGGGTGGGT; assay: G4-FID; conditions: 100 mM KCl, 10 mM lithium cacodylate pH 7.3, thiazole orange 0.5 µM displaced
[6] = test system: CEB25L111T (DNA, G4) AAGGGTGGGTGGGTGGGT; assay: G4-FID; conditions: 100 mM KCl, 10 mM lithium cacodylate pH 7.3, thiazole orange 0.5 µM displaced
[7] = test system: TERRA (RNA, G4) AGGGUUAGGGUUAGGGUUAGGG; assay: G4-FID; conditions: 100 mM KCl, 10 mM lithium cacodylate pH 7.3, thiazole orange 0.5 µM displaced
[8] = test system: NRAS (RNA, G4) GGGAGGGGCGGGUCUGGG; assay: G4-FID; conditions: 100 mM KCl, 10 mM lithium cacodylate pH 7.3, thiazole orange 0.5 µM displaced
[9] = test system: F21T (DNA, G4) GGGTTAGGGTTAGGGTTAGGG; assay: FRET melting; conditions: 10 mM KCl, 90 mM LiCl; 10 mM lithium cacodylate pH 7.2; 0.2 µM G4; 1 µM ligand; no competitor
[10] = test system: Biot-hTelo (DNA, G4) GGTTAGGGTTAGGGTTAGGGTTAGGGTTAGG; assay: adapted ELISA, anti-BrdU antibody; conditions: 100 mM KCl; 10 mM Tris-HCl pH 7.4; 250 nM ligand, oligonucleotide varied; apparent
[11] = test system: Biot-cMyc (DNA, G4) TGAGGGTGGGTAGGGTGGGTAA; assay: adapted ELISA, anti-BrdU antibody; conditions: 100 mM KCl; 10 mM Tris-HCl pH 7.4; 250 nM ligand, oligonucleotide varied; apparent
[12] = test system: Biot-TERRA (RNA, G4) UUAGGGUUAGGGUUAGGGUUAGGG; assay: adapted ELISA, anti-BrdU antibody; conditions: 100 mM KCl; 10 mM Tris-HCl pH 7.4; 250 nM ligand, oligonucleotide varied; apparent

Row | SMILES | DC50 ([1]; 0.25 µM G4) | DC50 ([2]; 0.25 µM G4) | DC50 ([3]; 0.25 µM G4) | DC50 ([4]; 0.25 µM G4) | DC50 ([5]; 0.25 µM G4) | DC50 ([6]; 0.25 µM G4) | DC50 ([7]; 0.25 µM G4) | DC50 ([8]; 0.25 µM G4) | binding [9] | Kd [10] | Kd [11] | Kd [12] | DC50 ([1]; 0.25 µM DNA) | DC50 ([2]; 0.25 µM DNA) | DC50 ([3]; 0.25 µM DNA) | DC50 ([4]; 0.25 µM DNA) | DC50 ([5]; 0.25 µM DNA) | DC50 ([6]; 0.25 µM DNA) | DC50 ([7]; 0.25 µM RNA, decimal comma) | DC50 ([8]; 0.25 µM RNA, decimal comma)
1 | C#CCCCC(=O)NCCCCNc1cc(C(=O)Nc2cc3ccccc3[n+](C)c2)nc(C(=O)Nc2cc3ccccc3[n+](C)c2)c1 | 370 nM | 300 nM | 310 nM | 200 nM | 400 nM | 230 nM | 0.31 µM | 0.21 µM | yes |  |  |  |  |  |  |  |  |  |  | 
2 | C[n+]1cc(NC(=O)c2cc(NCCCCNC(=O)CCCc3cn(CO[C@H]4C[C@H](n5cc(Br)c(=O)[nH]c5=O)O[C@@H]4CO)nn3)cc(C(=O)Nc3cc4ccccc4[n+](C)c3)n2)cc2ccccc21 | 800 nM | 1100 nM | 520 nM | 380 nM | 760 nM | 480 nM | 0.42 µM | 0.32 µM |  | 9.6 ± 1.3 nM | 3.5 ± 0.9 nM | 29.6 ± 7.8 nM |  |  |  |  |  |  |  | 
3 | C[n+]1cc(NC(=O)c2cccc(C(=O)Nc3cc4ccccc4[n+](C)c3)n2)cc2ccccc21 |  |  |  |  |  |  |  |  |  |  |  |  | 340 nM | 180 nM | 150 nM | 180 nM | 290 nM | 260 nM | 0,25 µM | 0,20 µM
